# In publication PMC6014988, “Precision therapeutic targeting of human cancer cell motility” (Nature Communications, 2018):
# Assays:
# [1] = tested on: matrix metalloproteinase 2 (MMP-2); parameters: method as in PMID 19638505; settings: prospective human trial; cited from earlier work
# [2] = Three-day MTT cell growth inhibition assay, 1542CPTX; type: cell-based, human; settings: human, 1542CPTX cells
# 1542CPTX = experiment: as above; type: cell-based, human; settings: Homo sapiens, 72 h, 3 days
# MKK4 = MKK4 (Homo sapiens, UniProt P45985); parameters: method as in PMID 19638505; settings: low nanomolar concentrations; cited from earlier work
# Sequence of MKK4 (P45985 whole entry): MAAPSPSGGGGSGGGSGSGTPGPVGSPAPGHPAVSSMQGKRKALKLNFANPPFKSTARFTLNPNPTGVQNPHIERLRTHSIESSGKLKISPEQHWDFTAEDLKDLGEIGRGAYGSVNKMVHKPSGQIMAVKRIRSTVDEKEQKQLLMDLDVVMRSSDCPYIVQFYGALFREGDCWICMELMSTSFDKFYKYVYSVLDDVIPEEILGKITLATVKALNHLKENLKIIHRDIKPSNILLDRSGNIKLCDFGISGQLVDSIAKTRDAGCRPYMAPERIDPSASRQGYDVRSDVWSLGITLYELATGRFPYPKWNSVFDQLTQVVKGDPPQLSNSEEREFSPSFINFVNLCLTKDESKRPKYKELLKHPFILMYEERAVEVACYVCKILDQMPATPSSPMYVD
# [3] = tested on: human prostate cells (PC3, PC3-M, 1532NPTX, 1542NPTX, 1532CPTX, 1542CPTX); parameters: method as in PMID 15833883; settings: human PCa cells, nanomolar concentrations; cited from earlier work
# [4] = Three-day MTT cell growth inhibition assay, 1532NPTX; type: cell-based, human; settings: human, 1532NPTX cells
# 1532NPTX = experiment: as above; type: cell-based, human; settings: Homo sapiens, 72 h, 3 days
# PC3 = experiment: Three-day MTT cell growth inhibition assay, PC3; type: cell-based, human; settings: Homo sapiens, PC-3, 72 h, 3 days
# [5] = Three-day MTT cell growth inhibition assay, PC3; type: cell-based, human; settings: human, PC3 cells
# [6] = Three-day MTT cell growth inhibition assay, 1542NPTX; type: cell-based, human; settings: human, 1542NPTX cells
# 1542NPTX = experiment: as above; type: cell-based, human; settings: Homo sapiens, 72 h, 3 days
# [7] = tested on: human PCa PC3-M cell orthotopic implants; parameters: method as in PMID 18339885; settings: murine orthotopic model; cited from earlier work
# [8] = Three-day MTT cell growth inhibition assay, PC3M; type: cell-based, human; settings: human; PC3M; 3 days
# Source text: (§1) Assays were in replicates of N = 3, and were repeated. […]
# (§2) Values are the mean±SEM of a single experiment, in
# (§3) replicates of N=4, repeated at least once (also N=4).
# (§4) Supplementary Figure 1b. Synthetic round #2.
# PC3M = experiment: Three-day MTT cell growth inhibition assay, PC3M; type: cell-based, human; settings: Homo sapiens, PC-3M, 72 h, PC3M
# Source text: as §1, §2, §3, §4
# [9] = Three-day MTT cell growth inhibition assay, 1532CPTX; type: cell-based, human; settings: human, 1532CPTX cells
# 1532CPTX = experiment: as above; type: cell-based, human; settings: Homo sapiens, 72 h, 3 days
# [10] = tested on: protein phosphorylation in PC3-M and PC3 cells; experiment: KinomeView phospho-motif antibody screen; type: cell-based, human; settings: 10 µM, 3 days, ± TGFβ
# Method: The Kinoview™ and PhosphoScan™ assays were performed by Cell Signaling Technology Inc.
# Supplementary Figure 10. Proteomic analysis of the effects of KBU2046 on the kinome. (a-c) Screening for effects on the kinome. PC3-M cells were pre-treated with 10 µM KBU2046, genistein or vehicle control for 3 days, then with ± TGFβ, as indicated. Resultant cell lysate, as well as lysate from tumors from mice treated with 150 mg/kg KBU2046 or control mice (from manuscript Figure 2a), were then probed with the KinomeView® panel of antibodies by Western blot. In instances where KBU2046 was inhibiting protein phosphorylation in cells and in tumors, a repeat experiment of PC3-M cells was conducted (Experiment #2). In addition to including PC3-M cells, as in Experiment #1, Experiment #2 expanded to examine effects on PC3 cells. (a) The identification of an 83 kDa band of interest (red arrows). This constitutes the only change […]
# as in tumor tissue. […] (c) All […]
# other Western blots of phospho-motif antibodies that were evaluated on initial screen. NI = tumor not informative; this denotes a tumor sample that yielded an abnormal coomassie blue staining pattern. Data from this sample was therefore not considered further.
# (also on this page, place not known: cat #C32G12; tPE cat #2981; sRXY, FXs NI NI cat #2351; tXR cat #23C8D12; RXRXX(s/t) NI NI)
# (1 picture or pasted object on this page, not shown here)
# PC3-M cells = experiment: Boyden chamber cell invasion assay, PC3-M cells; type: cell-based, human; settings: PC3-M cells, 10 µM compound, 3 days
# Method: Boyden chamber cell invasion assays were performed as previously described by us[30], using either denatured collagen (BD Biosciences) or type IV human collagen (BD Biosciences), with all experiments repeated, each in N = 4 replicates. In some experiments, as indicated, cells were transfected with an expression plasmid, using Lipofectamine 2000™ (Invitrogen), or with siRNA, using DharmaFect Duo (Thermo Scientific) and co-transfected with β-Galactosidase (Plasmid pCMV•SPORT-βgal; Life Technology). […]
# For cell invasion, PC3-M cells […]
# were treated with 10 µM compound for a total of 3 days, and cell invasion assays were run at the end of the 3 day period, in the presence of compound. Values are the mean±SEM of three separate experiments, each run in replicates of N=3. […]
# assays were performed with PC3-M cells. Values are the mean±SEM of a single experiment, in replicates of N=4, repeated at least once (also N=4). […]
# over 9000 human proteins = experiment: ProtoArray Human Protein Microarray binding assay; settings: levels >/= 10 fold above background
# Method: The ProtoArray® assay, using the Human Protein Microarray platform, was performed by Invitrogen. […]
# followed by detection with FITC-streptavidin, and visualization by fluorescent microscopy (with equal exposure times). (d) Protein array hybridization. KBU2046-biotin was hybridized to ProtoArray® Human Protein Microarray’s at 0.5 and 10 µM with and without 10 fold excess free KBU2046. We first sought proteins that met the following criteria, and did so at both 0.5 and 10 µM concentrations of KBU2046-biotin (in the absence of free KBU2046): Z-Score greater than 2.5, Z-Factor greater than 0.5, CI P-value less than 0.05, negative control value <2,000 (relative fluorescence units; RFUs), and a signal/negative control signal of >10 and >5 for 10 µM and 0.5 µM conditions, respectively. This yielded 3 proteins, shown in table, for an initial hit rate of 0.03%. We then required free KBU2046 to inhibit binding by >75%. Of the two remaining candidates, we eliminated isovaleryl-CoA dehydrogenase (ICD). Its binding signal doubled on […]
# suspected non-specific binding by the biotin-linker moiety. We deemed cysteine and glycine-rich protein 1 (CSRP1) our top priority protein, though its binding characteristics at 10 µM + free KBU2046 were similar to ICD, albeit not as extreme. We thus evaluated whether KBU2046- […]
# There were two additional notable findings from protein array studies. […]
smiles,measurement,setting,value
"O=c1c(-c2ccc(O)cc2)coc2cc(O)cc(O)c12 [Genistein, 4′,5,7-trihydroxyisoflavone, reference compound]",MMP-2 expression in prostate tissue,[1],downregulates
same,"viability at 3 days, 50 µM",[2],77.4%
same,IC20,1542CPTX,24.7 µM
same,IC50,1542CPTX,> 50 µM
same,inhibition of MKK4 kinase activity,MKK4,inhibited the kinase activity
same,cell invasion,[3],inhibit human prostate cancer (PCa) cell invasion
same,"viability at 3 days, 50 µM",[4],66.9%
same,IC20,1532NPTX,23 µM
same,IC50,1532NPTX,> 50 µM
same,IC20,PC3,18 µM
same,IC50,PC3,41.7 µM
same,"viability at 3 days, 50 µM",[5],39.3%
same,"viability at 3 days, 50 µM",[6],80.5%
same,IC20,1542NPTX,18.7 µM
same,IC50,1542NPTX,> 50 µM
same,metastasis,[7],inhibit
same,"viability at 3 days, 50 µM",[8],46.2%
same,IC20,PC3M; concentration inhibiting cell growth by 20% after 3 days,17.5 µM
same,IC50,PC3M; concentration inhibiting cell growth by 50% after 3 days,45.3 µM
same,"viability at 3 days, 50 µM",[9],71.7%
same,IC20,1532CPTX,30.8 µM
same,IC50,1532CPTX,> 50 µM
same,changes in protein phosphorylation,[10],widespread changes in protein phosphorylation
O=c1c(-c2ccc(O)cc2)coc2cccc(O)c12 [compound 8],anti-invasion activity,PC3-M cells,does not affect activity
COc1ccc(-c2coc3cc(OC)cc(O)c3c2=O)cc1 [compound 16],anti-invasion activity,PC3-M cells,retains anti-invasion activity
CN[C@@H]1C[C@H]2O[C@@](C)([C@@H]1OC)n1c3ccccc3c3c4c(c5c6ccccc6n2c5c31)C(=O)NC4 [staurosporine],number of proteins bound,over 9000 human proteins,214
